# Laboratory results reported in patent US11655235B2, “Pyrrolidine and piperidine compounds” (YUHAN CORPORATION, priority 2019, dated 2023).
# Where two headings read alike, the source gives them in different places.
# Legend:
# Type in all cases: biochemical
# Recombinant human FAP = molecular target: T1, Recombinant human FAP (Homo sapiens, UniProt Q12884); test: FAP inhibition, fluorogenic substrate Z-Gly-Pro-AMC
# T1 construct: purchased R&D systems
# T1 sequence (Q12884 1-760): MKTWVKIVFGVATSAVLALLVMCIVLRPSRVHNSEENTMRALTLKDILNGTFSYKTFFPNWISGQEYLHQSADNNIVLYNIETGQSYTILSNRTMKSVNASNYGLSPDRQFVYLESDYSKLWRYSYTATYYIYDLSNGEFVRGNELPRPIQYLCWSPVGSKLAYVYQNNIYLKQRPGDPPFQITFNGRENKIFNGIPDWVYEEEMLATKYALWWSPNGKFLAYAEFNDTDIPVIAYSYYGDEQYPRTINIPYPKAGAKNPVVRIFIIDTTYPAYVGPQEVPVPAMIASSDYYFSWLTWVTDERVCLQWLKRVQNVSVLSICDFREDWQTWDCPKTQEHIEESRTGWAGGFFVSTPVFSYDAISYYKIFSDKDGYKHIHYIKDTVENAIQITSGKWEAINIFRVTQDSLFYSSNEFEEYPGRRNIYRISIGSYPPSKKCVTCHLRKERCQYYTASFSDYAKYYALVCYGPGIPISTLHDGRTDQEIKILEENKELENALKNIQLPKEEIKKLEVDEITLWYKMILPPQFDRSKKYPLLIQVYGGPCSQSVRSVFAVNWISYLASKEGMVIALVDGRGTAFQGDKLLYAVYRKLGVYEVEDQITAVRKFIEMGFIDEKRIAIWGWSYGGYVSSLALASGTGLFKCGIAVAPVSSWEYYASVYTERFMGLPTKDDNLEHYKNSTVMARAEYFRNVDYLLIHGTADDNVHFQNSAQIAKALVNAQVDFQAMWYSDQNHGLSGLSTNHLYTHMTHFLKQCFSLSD
# In short: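 Recombinant human FAP, 10 ng per reaction, in 50 mM Tris pH 7.5 with 1 M NaCl and 1 mg/ml BSA at 25° C; substrate Z-Gly-Pro-AMC, ≤0.1% DMSO. AMC fluorescence read at ex 380/em 460 nm; % signal-rate decrease vs no-inhibitor control, 8-point curves fitted to a four-parameter logistic for IC50.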
# recombinant human DPP7 = molecular target: T2, recombinant human DPP7 (Homo sapiens, UniProt Q9UHL4); test: DPP7 inhibition, fluorogenic substrate Lys-Pro-AMC
# T2 construct: purchased R&D Systems
# In short: (§1)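 Enzyme per reaction: 50 ng DPP9, 20 ng DPP8, 10 ng each DPP7 and PREP. Compounds were serially diluted (8 points, up to 0.5% DMSO) and incubated at 25 °C.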
# recombinant human DPP8 = molecular target: T3, recombinant human DPP8 (Homo sapiens, UniProt Q6V1X1); test: DPP8 inhibition, fluorogenic substrate Z-Ala-Pro-AMC
# T3 construct: purchased PBS Bioscience
# Procedure: The compounds according to the present technology were evaluated in terms of the inhibitory effect on the activity of dipeptidyl peptidases including FAP by using a substrate producing fluorescent substances upon enzymatic decomposition. The test was conducted at 25° C. to get a final reaction volume of 100 μL in a 96 black well plate. […] Briefly, the test compounds were dissolved in dimethyl sulfoxide (DMSO) at a concentration of 20 mM and then subjected to serial dilution, thereby creating an 8 point curve. As for the control group, a 6 point curve created by serial dilution of Talabostat in the same buffer solution was used. Fluorescence intensity was measured using a microplate reader (Flexstation3, Molecular Devices) under the wavelength condition exciting at 380 nm and reading the emission at 460 nm. The inhibitory effect of the test compounds was measured as a decrease (%) in the signal rate as compared to the control group without any inhibitor. Data was fixed to a logistic model with four variables and IC50 value was calculated using GraphPad Prism program. As for recombinant human DPP4 (R&D Systems), 25 mM tris (pH 8.0) buffer as a buffer solution and H-Gly-Pro-AMC (Bachem) as a substrate were used. As for recombinant human DPP7 (R&D Systems), 25 mM MES (pH 6.0) buffer as a buffer solution and Lys-Pro-AMC (Bachem) as a substrate were used. As for recombinant human DPP8 (PBS Bioscience), as a buffer solution, a 10 mM tris (pH 7.4) buffer comprising 10 mM of magnesium chloride and 0.05% of Tween 20, and Z-Ala-Pro-AMC (BPS Bioscience) as a substrate were used. As for recombinant human DPP9 (R&D Systems), a 25 mM tris (pH 8.0) buffer as a buffer solution and H-Gly-Pro-AMC (Bachem) as a substrate were used. As for recombinant human PREP (R&D System), as a buffer solution, a 25 mM tris (pH 7.5) buffer comprising 250 mM sodium chloride and 2.5 mM DTT (Dithiolthreitol), and Z-Gly-Pro-AMC (Bachem) as a substrate were used. The evaluation was made by using 10 ng of DPP4, PDD7, and PREP, 20 ng of DPP8, and 50 ng of DPP9 based on the final reaction. In the evaluation of DPP4, the test compounds were subjected to serial dilution in a buffer under the condition containing up to 0.1% of DMSO. In the evaluation of DPP7, DPP8, DPP9, and PREP, the test compounds were subjected to serial dilution in each buffer under the condition containing up to 0.5% of DMSO.
# recombinant human DPP9 = molecular target: T4, recombinant human DPP9 (Homo sapiens, UniProt Q86TI2); test: DPP9 inhibition, fluorogenic substrate H-Gly-Pro-AMC
# T4 construct: purchased R&D Systems
# In short: as §1
# recombinant human PREP = molecular target: T5, recombinant human PREP (Homo sapiens, UniProt P48147); test: PREP inhibition, fluorogenic substrate Z-Gly-Pro-AMC; conditions: Inhibitory Activity (IC50, nM) PREP
# T5 construct: purchased R&D System
# T5 sequence (P48147 1-710): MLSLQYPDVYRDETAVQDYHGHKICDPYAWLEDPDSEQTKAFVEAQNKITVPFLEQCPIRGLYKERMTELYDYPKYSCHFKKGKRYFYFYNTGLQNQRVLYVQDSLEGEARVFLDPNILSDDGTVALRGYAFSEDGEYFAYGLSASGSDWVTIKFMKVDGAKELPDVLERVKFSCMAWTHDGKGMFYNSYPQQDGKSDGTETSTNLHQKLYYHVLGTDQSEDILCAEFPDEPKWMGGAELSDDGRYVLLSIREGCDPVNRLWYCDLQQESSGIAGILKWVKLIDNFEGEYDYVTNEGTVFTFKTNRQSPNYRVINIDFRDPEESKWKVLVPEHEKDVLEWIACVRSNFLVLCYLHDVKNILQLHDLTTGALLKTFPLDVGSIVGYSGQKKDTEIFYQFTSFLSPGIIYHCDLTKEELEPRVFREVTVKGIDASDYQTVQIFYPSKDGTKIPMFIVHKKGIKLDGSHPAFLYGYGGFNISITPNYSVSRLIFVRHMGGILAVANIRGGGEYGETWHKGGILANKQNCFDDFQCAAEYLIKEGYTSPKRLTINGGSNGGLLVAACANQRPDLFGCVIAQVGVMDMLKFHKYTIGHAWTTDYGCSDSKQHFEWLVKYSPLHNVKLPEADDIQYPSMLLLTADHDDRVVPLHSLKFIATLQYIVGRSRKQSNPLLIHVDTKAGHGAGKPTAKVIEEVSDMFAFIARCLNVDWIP
# In short: as §1
# DPP4 = DPP4 (Homo sapiens, UniProt P27487); test: DPP4 inhibition, fluorogenic substrate H-Gly-Pro-AMC; parameters: purchased R&D Systems; conditions: for IC50: 25° C., H-Gly-Pro-AMC substrate; for inhibition at 1 µM: read-out: hDPP4 inhibition % at 1 μM
# [1] = 25° C., Z-Gly-Pro-AMC substrate
# [2] = 25° C., Z-Ala-Pro-AMC substrate
# [3] = 25° C., H-Gly-Pro-AMC substrate
# T3 sequence (Q6V1X1 whole entry): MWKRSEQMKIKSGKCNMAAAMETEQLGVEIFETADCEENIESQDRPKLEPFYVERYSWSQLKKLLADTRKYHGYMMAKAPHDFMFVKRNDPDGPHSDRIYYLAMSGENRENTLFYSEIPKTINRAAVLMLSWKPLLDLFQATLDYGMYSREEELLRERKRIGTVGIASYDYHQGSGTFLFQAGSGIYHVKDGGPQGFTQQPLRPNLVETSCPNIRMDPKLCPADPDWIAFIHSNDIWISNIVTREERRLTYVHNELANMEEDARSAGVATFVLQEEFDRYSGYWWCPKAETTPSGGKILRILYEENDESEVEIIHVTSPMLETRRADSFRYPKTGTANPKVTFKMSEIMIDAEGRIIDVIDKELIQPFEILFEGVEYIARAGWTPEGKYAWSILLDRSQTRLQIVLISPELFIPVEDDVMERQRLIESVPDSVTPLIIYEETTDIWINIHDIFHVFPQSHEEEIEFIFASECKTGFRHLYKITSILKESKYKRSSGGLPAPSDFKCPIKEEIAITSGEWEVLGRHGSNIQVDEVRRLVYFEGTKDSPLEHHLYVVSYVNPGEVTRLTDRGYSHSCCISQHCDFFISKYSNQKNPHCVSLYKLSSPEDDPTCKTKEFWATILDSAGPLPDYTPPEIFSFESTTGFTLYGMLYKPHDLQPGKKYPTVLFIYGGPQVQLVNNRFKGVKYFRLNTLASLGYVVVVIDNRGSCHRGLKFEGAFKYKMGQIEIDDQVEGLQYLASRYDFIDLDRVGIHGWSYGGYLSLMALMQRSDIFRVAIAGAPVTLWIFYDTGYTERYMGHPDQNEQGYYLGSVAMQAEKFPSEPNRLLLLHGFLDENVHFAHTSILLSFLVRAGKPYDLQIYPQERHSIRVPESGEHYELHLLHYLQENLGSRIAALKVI
# T4 sequence (Q86TI2 whole entry): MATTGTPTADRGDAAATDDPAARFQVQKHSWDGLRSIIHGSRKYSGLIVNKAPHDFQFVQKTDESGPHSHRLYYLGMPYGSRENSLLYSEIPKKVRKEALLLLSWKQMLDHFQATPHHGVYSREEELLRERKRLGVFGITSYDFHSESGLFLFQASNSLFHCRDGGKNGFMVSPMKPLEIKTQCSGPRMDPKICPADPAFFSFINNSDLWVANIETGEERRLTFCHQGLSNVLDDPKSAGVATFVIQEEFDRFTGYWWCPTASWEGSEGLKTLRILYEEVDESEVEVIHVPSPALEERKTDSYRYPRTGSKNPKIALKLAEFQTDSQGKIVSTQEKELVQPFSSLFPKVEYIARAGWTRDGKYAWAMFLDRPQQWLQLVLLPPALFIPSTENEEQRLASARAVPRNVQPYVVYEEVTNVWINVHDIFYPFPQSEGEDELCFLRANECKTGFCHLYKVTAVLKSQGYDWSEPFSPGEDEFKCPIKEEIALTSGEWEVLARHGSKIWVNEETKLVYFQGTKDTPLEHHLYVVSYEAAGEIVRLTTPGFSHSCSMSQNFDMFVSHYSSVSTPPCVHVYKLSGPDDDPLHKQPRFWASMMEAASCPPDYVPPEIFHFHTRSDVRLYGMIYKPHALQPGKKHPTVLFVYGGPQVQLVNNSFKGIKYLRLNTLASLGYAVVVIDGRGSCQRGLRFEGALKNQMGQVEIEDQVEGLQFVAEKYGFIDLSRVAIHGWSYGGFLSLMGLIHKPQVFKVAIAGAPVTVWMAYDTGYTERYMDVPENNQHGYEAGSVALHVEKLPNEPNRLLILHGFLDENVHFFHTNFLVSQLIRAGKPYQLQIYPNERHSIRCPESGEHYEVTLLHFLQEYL
# Chain of DPP4 (P27487 whole entry): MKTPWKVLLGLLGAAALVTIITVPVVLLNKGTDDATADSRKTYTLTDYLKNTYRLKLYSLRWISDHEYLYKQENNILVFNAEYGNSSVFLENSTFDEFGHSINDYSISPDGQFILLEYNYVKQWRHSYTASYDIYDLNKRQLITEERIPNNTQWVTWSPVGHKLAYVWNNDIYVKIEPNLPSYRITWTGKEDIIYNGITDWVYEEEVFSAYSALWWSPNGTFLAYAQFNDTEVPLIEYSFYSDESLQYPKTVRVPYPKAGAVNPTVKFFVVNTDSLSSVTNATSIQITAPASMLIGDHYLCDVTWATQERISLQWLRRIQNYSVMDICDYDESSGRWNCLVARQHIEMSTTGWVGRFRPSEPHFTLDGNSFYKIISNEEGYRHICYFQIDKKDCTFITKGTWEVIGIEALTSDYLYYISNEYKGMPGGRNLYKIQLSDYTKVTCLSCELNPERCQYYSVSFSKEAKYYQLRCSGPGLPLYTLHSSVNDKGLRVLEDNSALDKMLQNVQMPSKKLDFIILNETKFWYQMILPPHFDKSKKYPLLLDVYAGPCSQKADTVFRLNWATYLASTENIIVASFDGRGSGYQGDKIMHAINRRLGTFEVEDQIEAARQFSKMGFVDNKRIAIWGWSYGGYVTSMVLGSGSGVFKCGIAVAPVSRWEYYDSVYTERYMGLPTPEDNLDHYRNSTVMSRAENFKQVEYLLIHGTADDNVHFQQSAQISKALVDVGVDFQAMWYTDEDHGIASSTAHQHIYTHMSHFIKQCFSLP
IC50 (Recombinant human FAP; [1]),IC50 (recombinant human DPP7),IC50 (recombinant human DPP8; [2]),IC50 (recombinant human DPP9; [3]),IC50 (recombinant human PREP; [1]),IC50 (DPP4),inhibition at 1 µM (DPP4),"IC50 (Recombinant human FAP; recombinant human FAP, substrate Z-Gly-Pro-AMC)",IC50 (recombinant human DPP7; recombinant human DPP7),IC50 (recombinant human DPP8; recombinant human DPP8),IC50 (recombinant human DPP9; recombinant human DPP9),IC50 (recombinant human PREP; recombinant human PREP),SMILES
0.00183 µM,0.0462 µM,7.89 µM,5.71 µM,> 100000 nM,> 1 µM,–,–,–,–,–,–,"N#C[C@@H]1CC(F)(F)CN1C(=O)CN1CC[C@H](Nc2cnc3ccccc3c2)C1 [Example 6, (S)-4,4-difluoro-1-(2-((S)-3-(quinolin-3-ylamino)pyrrolidin-1-yl)acetyl)pyrrolidine-2-carbonitrile]"
0.0013 µM,0.0956 µM,0.228 µM,17.1 µM,> 100000 nM,> 1 µM,–,–,–,–,–,–,"N#C[C@@H]1CC(F)(F)CN1C(=O)CN1CC[C@H](Nc2cccc3ccoc23)C1 [Example 11, (S)-1-(2-((S)-3-(benzofuran-7-ylamino)pyrrolidin-1-yl)acetyl)-4,4-difluoropyrrolidine-2-carbonitrile]"
0.0246 µM,0.243 µM,0.163 µM,56.5 µM,> 100000 nM,> 1 µM,–,–,–,–,–,–,"N#C[C@@H]1CC(F)(F)CN1C(=O)CN1CC[C@H](Nc2ccccc2-c2ccccc2)C1 [Example 13, (S)-1-(2-((S)-3-([1,1′-biphenyl]-2-ylamino)pyrrolidin-1-yl)acetyl)-4,4-difluoropyrrolidine-2-carbonitrile]"
0.0026 µM,0.0847 µM,0.557 µM,13.7 µM,> 100000 nM,–,11%,–,–,–,–,–,"N#C[C@@H]1CC(F)(F)CN1C(=O)CN1CC[C@H](Nc2cccc(-c3ccccc3)c2)C1 [Example 16, (S)-1-(2-((S)-3-([1,1′-biphenyl]-3-ylamino)pyrrolidin-1-yl)acetyl)-4,4-difluoropyrrolidine-2-carbonitrile]"
–,–,–,–,–,–,–,0.0027 µM,0.314 µM,≥ 100 µM,4.58 µM,409 nM,"N#C[C@@H]1C[C@H](F)CN1C(=O)CN1CCC(Nc2cncc3c(Cl)cccc23)CC1 [Example 361, (2S,4S)-1-[2-[4-[(8-chloro-4-isoquinolyl)amino]-1-piperidyl]acetyl]-4-fluoro-pyrrolidine-2-carbonitrile]"

# The remaining lines, values behind:
SMILES,IC50 (Recombinant human FAP; [1]),IC50 (recombinant human DPP7),IC50 (recombinant human DPP8; [2]),IC50 (recombinant human DPP9; [3]),IC50 (recombinant human PREP; [1]),IC50 (DPP4),inhibition at 1 µM (DPP4),"IC50 (Recombinant human FAP; recombinant human FAP, substrate Z-Gly-Pro-AMC)",IC50 (recombinant human DPP7; recombinant human DPP7),IC50 (recombinant human DPP8; recombinant human DPP8),IC50 (recombinant human DPP9; recombinant human DPP9),IC50 (recombinant human PREP; recombinant human PREP)
"N#C[C@@H]1CC(F)(F)CN1C(=O)CN1CC[C@H](Nc2ccnc3ccccc23)C1 [Example 7, (S)-4,4-difluoro-1-(2-((S)-3-(quinolin-4-ylamino)pyrrolidin-1-yl)acetyl)pyrrolidine-2-carbonitrile]",0.00046 µM,< 0.03 µM,97.6 µM,12.8 µM,> 100000 nM,> 1 µM,–,–,–,–,–,–
"N#C[C@@H]1CC(F)(F)CN1C(=O)CN1CC[C@H](Nc2cncc3ccccc23)C1 [Example 8, (S)-4,4-difluoro-1-(2-((S)-3-(isoquinolin-4-ylamino)pyrrolidin-1-yl)acetyl)pyrrolidine-2-carbonitrile]",0.0011 µM,< 0.03 µM,5.79 µM,0.488 µM,> 100000 nM,> 1 µM,–,–,–,–,–,–
"N#C[C@@H]1CC(F)(F)CN1C(=O)CN1CC[C@H](Nc2cccc3sccc23)C1 [Example 9, (S)-1-(2-((S)-3-(benzo[b]thiophen-4-ylamino)pyrrolidin-1-yl)acetyl)-4,4-difluoropyrrolidine-2-carbonitrile]",0.0011 µM,0.0751 µM,0.213 µM,12.3 µM,> 100000 nM,> 1 µM,–,–,–,–,–,–
"N#C[C@@H]1CC(F)(F)CN1C(=O)CN1CC[C@H](Nc2cccc3ccsc23)C1 [Example 10, (S)-1-(2-((S)-3-(benzo[b]thiophen-7-ylamino)pyrrolidin-1-yl)acetyl)-4,4-difluoropyrrolidine-2-carbonitrile]",0.0032 µM,0.075 µM,0.143 µM,9.98 µM,> 100000 nM,> 1 µM,–,–,–,–,–,–
"N#C[C@@H]1CC(F)(F)CN1C(=O)CN1CC[C@H](Nc2cncc3ccoc23)C1 [Example 12, (S)-4,4-difluoro-1-(2-((S)-3-(furo[3,2-c]pyridin-7-ylamino)pyrrolidin-1-yl)acetyl)pyrrolidine-2-carbonitrile]",0.0005 µM,< 0.03 µM,0.371 µM,17.7 µM,> 100000 nM,> 1 µM,–,–,–,–,–,–
"N#C[C@@H]1CC(F)(F)CN1C(=O)CN1CC[C@H](Nc2ccc(-c3ccccc3)cc2)C1 [Example 14, (S)-1-(2-((S)-3-([1,1′-biphenyl]-4-ylamino)pyrrolidin-1-yl)acetyl)-4,4-difluoropyrrolidine-2-carbonitrile]",0.0187 µM,0.127 µM,0.676 µM,11.1 µM,> 100000 nM,> 1 µM,–,–,–,–,–,–
"N#C[C@@H]1CC(F)(F)CN1C(=O)CN1CC[C@H](Nc2ccc3ccccc3c2)C1 [Example 15, (S)-4,4-difluoro-1-(2-((S)-3-(naphthalen-2-ylamino)pyrrolidin-1-yl)acetyl)pyrrolidine-2-carbonitrile]",0.0123 µM,0.196 µM,0.253 µM,48.8 µM,> 100000 nM,–,9.7%,–,–,–,–,–
